From patent US20110015393A1, “PHTHALAZINONE COMPOUND” (ASTRAZENECA AB, priority 2009, published 2011)
pIC50: −log10 of the molar value.

What was measured:
HeLa cells = assay: Potentiation Factor (PF50): MMS growth inhibition, SRB assay; format: cell-based; settings: MMS 0 to 10 μg/ml, ratio of IC50 of control cell growth to IC50 of cell growth + PARP inhibitor
Procedure: The Potentiation Factor (PF50) for compounds is calculated as a ratio of the IC50 of control cell growth divided by the IC50 of cell growth+PARP inhibitor. Growth inhibition curves for both control and compound treated cells are in the presence of the alkylating agent methyl methanesulfonate (MMS). The test compound was used at a fixed concentration of 30 nM and 200 nM. The concentrations of MMS were over a range from 0 to 10 μg/ml. Cell growth was assessed using the sulforhodamine B (SRB) assay (Skehan, P., et al., (1990) New colorimetric cytotoxicity assay for anticancer-drug screening. J. Natl. Cancer Inst. 82, 1107-1112.). 2,000 HeLa cells were seeded into each well of a flat-bottomed 96-well microtiter plate in a volume of 100 μl and incubated for 6 hours at 37° C. Cells were either replaced with media alone or with media containing PARP inhibitor at a final concentration of 30 nM or 200 nM. Cells were allowed to grow for a further 1 hour before the addition of MMS at a range of concentrations (typically 0, 1, 2, 3, 5, 7 and 10 μg/ml) to either untreated cells or PARP inhibitor treated cells. Cells treated with PARP inhibitor alone were used to assess the growth inhibition by the PARP inhibitor. […] Plates were gently shaken and left at room temperature for 30 minutes before measuring the optical density at 564 nm on a Microquant microtiter plate reader.

P-glycoprotein = target: T1, P-glycoprotein (Homo sapiens, UniProt P08183); assay: P-gp substrate activity: Dose Modification Ratio in KBA1 cells with/without Verapamil, SRB assay; format: in vitro ADME; settings: IC50 in absence of Verapamil divided by IC50 in presence of 20 μM Verapamil, 5 days, DMR <1.5 = not a P-gp substrate
T1 construct: Hela cell line known as KBA1, which expressed high P-glycoprotein; endogenous in cells; host or cells: KBA1 cells (HeLa-derived, high P-gp); matched non-expressing line KB31
Procedure: Cells from the Hela cell line known as KBA1, which expressed high P-glycoprotein (ABC1a and ABC1b transporter glycoproteins also known as MDR1a and MDR1b) and the matched non-P-glycoprotein expressing line known as KB31, were seeded onto 96 well tissue culture plates with 80 μl per well of 1.00×10^4 cells/ml=800 cells/well [DMEM, 10% FBS, PSG] and left to adhere for 4 hours. After the incubation period 10 μl per well of 200 μM Verapamil (giving a final conc. of 20 μM) a known inhibitor of P-gp or vehicle media were added to various wells of the cell plates. The 96 well plates were left in the incubator for 1 hour prior to 10 μl of test compound (or the known substrate Etoposide as a reference control) or 10 μl PBS/1% DMSO vehicle (control wells) being added into either Verapamil containing or media control wells. […]
The cell plates were then incubated for 5 days prior to cell growth being assessed using the Sulforhodamine B (SRB) assay as described previously. The P-gp substrate activity for each compound was calculated using the cell growth activity of the tests compounds on the KBA1 cells in the presence or absence (control wells) of Verapamil. The Dose Modification Ratio (DMR) is calculated from the KBA1 where for each test compound a ratio of the IC50 of the compound in the absence of Verapamil is divided by the IC50 of cell growth in the presence of Verapamil. […]

[1] = target: T2, Mammalian PARP, isolated from Hela cell nuclear extract (Homo sapiens, UniProt P09874); assay: PARP inhibition assay (FlashPlate, 3H-NAD incorporation); format: biochemical; settings: PARP enzyme activity; NAD 5 μM, 30° C., 45 minutes
T2 construct: isolated from Hela cell nuclear extract; endogenous in cells; host or cells: HeLa cell nuclear extract
Procedure: In order to assess the inhibitory action of compound 1, the following assay was used to determine the IC50 value.
Mammalian PARP, isolated from Hela cell nuclear extract, was incubated with Z-buffer (25 mM Hepes (Sigma); 12.5 mM MgCl2 (Sigma); 50 mM KCl (Sigma); 1 mM DTT (Sigma); 10% Glycerol (Sigma) 0.001% NP-40 (Sigma); pH 7.4) in 96 well FlashPlates (TRADE MARK) (NEN, UK) and varying concentrations of said inhibitors added. The compound was diluted in DMSO and gave final assay concentrations of between 10 and 0.01 μM, with the DMSO being at a final concentration of 1% per well. The total assay volume per well was 40 μl.
After 10 minutes incubation at 30° C. the reactions were initiated by the addition of a 10 μl reaction mixture, containing NAD (5 μM), ^3H-NAD and 30 mer double stranded DNA-oligos. Designated positive and negative reaction wells were done in combination with compound wells (unknowns) in order to calculate % enzyme activities. The plates were then shaken for 2 minutes and incubated at 30° C. for 45 minutes. […]
The plates were transferred to a TopCount NXT (TRADE MARK) (Packard, UK) for scintillation counting. Values recorded are counts per minute (cpm) following a 30 second counting of each well.
The % enzyme activity for the compound is then calculated using the following equation: […]

T1 sequence (P08183 whole entry): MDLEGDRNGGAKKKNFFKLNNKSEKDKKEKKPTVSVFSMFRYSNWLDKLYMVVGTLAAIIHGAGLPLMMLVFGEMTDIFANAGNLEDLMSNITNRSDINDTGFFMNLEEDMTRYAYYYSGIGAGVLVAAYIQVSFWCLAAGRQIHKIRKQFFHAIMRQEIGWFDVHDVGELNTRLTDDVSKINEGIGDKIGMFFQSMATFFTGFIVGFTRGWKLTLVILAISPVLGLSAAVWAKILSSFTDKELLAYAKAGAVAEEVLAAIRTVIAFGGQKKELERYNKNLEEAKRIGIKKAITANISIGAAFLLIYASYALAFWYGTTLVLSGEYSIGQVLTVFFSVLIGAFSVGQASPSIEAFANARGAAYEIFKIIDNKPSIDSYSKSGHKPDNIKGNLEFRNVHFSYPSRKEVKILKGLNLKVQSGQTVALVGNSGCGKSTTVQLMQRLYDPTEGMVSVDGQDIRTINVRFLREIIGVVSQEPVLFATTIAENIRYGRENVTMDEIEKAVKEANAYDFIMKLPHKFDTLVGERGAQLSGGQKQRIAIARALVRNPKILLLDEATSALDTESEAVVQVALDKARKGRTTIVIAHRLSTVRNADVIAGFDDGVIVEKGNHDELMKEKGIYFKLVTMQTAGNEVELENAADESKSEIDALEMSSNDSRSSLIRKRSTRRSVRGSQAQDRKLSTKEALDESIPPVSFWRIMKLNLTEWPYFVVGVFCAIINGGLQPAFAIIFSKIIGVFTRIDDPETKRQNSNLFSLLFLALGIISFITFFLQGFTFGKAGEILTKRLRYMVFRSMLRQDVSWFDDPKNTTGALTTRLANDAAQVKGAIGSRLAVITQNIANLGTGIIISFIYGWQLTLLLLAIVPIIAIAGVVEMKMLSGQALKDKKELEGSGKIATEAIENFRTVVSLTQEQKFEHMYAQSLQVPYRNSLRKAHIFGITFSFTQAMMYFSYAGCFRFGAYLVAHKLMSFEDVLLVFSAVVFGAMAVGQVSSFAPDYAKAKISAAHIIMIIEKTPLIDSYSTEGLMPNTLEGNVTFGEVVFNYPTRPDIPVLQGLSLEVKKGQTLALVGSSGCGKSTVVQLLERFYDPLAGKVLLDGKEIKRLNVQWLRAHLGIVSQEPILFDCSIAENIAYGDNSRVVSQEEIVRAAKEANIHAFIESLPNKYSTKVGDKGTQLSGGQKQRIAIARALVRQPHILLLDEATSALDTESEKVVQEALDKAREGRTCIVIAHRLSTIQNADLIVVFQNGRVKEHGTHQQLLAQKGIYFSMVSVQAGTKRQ
T2 sequence (P09874 whole entry): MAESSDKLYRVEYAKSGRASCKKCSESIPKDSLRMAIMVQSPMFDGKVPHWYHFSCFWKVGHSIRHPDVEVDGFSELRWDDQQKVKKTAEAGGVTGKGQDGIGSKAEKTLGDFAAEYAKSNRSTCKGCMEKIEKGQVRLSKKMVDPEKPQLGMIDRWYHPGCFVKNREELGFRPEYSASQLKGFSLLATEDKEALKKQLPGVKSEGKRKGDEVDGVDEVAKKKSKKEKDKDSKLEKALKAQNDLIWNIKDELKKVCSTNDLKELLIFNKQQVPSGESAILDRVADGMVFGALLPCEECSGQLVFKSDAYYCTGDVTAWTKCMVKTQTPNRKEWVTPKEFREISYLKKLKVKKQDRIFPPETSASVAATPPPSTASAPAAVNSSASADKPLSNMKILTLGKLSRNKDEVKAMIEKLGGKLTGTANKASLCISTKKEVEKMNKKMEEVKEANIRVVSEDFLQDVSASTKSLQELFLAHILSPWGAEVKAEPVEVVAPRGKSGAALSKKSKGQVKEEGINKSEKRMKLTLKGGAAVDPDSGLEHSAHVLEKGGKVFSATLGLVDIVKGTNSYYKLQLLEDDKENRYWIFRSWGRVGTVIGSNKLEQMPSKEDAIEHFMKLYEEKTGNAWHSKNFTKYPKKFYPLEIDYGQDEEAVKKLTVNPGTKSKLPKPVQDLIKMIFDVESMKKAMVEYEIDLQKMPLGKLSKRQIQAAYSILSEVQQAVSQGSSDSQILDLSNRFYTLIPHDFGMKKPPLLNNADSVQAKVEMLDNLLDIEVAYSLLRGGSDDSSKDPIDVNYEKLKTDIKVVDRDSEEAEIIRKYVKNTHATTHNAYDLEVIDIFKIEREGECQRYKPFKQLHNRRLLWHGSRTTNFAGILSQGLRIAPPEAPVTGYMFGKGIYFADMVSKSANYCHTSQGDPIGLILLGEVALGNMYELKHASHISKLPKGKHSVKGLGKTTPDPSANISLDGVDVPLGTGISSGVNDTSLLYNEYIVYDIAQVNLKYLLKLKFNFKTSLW

Dose Modification Ratio (DMR) (P-glycoprotein): 1.3 | pIC50 [1]: ~8.30
SMILES: COC1CCN(C(=O)c2cc(Cc3n[nH]c(=O)c4ccccc34)ccc2F)CC1 [Compound 1, 4-(4-Fluoro-3-(4-methoxypiperidine-1-carbonyl)benzyl)phthalazin-1(2H)-one]
PF50 at 30 nM (HeLa cells; test compound fixed at 30 nM): 3.0 | PF50 at 200 nM (HeLa cells; test compound fixed at 200 nM): 15
